Results from ChEMBL document CHEMBL1157629, “Acetylcholinesterase inhibitors from the toadstool Cortinarius infractus” (Bioorg Med Chem, 2010).
Calls of active or inactive are those of the source. The rule behind the calls is not given here.

Assays:
[1] = Inhibition of amyloid beta (1-40) self-aggregation at 25 uM by thioflavin T fluorescence assay
[2] = Cytotoxicity against human HepG2 cells assessed as cell viability at 100 uM after 24 hrs; type: cell-based; details: read-out: Activity
SH-SY5Y [3] = test: Cytotoxicity against human SH-SY5Y cells assessed as LDH release at 100 uM after 24 hrs; type: cell-based
[4] = Cytotoxicity against human SH-SY5Y cells assessed as cell viability at 10 uM after 24 hrs; type: cell-based; details: read-out: Activity
[5] = Cytotoxicity against human SH-SY5Y cells assessed as cell viability at 100 uM after 24 hrs; type: cell-based; details: read-out: Activity
Acetylcholinesterase = target: T1, Acetylcholinesterase (Bos taurus, UniProt P23795)
T1 sequence (P23795 whole entry): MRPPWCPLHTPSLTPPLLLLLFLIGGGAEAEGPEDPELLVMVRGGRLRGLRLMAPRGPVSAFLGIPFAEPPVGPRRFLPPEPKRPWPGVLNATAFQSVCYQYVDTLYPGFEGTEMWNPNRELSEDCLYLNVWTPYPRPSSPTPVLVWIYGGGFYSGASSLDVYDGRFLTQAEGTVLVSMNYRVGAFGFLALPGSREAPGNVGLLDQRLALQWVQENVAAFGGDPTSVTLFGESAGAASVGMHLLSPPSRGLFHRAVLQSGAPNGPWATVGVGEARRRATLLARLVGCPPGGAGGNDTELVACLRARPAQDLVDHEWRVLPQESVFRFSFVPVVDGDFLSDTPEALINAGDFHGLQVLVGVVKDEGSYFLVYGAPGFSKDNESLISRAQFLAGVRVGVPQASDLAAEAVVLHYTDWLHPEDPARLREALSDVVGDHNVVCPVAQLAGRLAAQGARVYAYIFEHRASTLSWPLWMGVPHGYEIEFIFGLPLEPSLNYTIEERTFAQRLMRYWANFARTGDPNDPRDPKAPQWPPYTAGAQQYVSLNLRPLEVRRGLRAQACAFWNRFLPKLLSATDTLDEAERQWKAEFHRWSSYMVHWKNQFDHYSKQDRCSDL
Description: Inhibition of bovine AChE by Elman's method

HepG2 [6] = test: Cytotoxicity against human HepG2 cells assessed as LDH release at 100 uM after 24 hrs; type: cell-based; details: hepg2, 24 h
SH-SY5Y [7] = test: Cytotoxicity against human SH-SY5Y cells assessed as LDH release at 10 uM after 24 hrs; type: cell-based
[8] = Cytotoxicity against human HepG2 cells assessed as cell viability at 10 uM after 24 hrs; type: cell-based; details: read-out: Activity
[9] = target: Cholinesterase (Equus caballus) (UniProt P81908); test: Inhibition of equine serum BChE at 100 uM by Ellman's method
HepG2 [10] = test: Cytotoxicity against human HepG2 cells assessed as LDH release at 10 uM after 24 hrs; type: cell-based; details: hepg2, 24 h

Sequence of Cholinesterase (Equus caballus) (P81908 whole entry): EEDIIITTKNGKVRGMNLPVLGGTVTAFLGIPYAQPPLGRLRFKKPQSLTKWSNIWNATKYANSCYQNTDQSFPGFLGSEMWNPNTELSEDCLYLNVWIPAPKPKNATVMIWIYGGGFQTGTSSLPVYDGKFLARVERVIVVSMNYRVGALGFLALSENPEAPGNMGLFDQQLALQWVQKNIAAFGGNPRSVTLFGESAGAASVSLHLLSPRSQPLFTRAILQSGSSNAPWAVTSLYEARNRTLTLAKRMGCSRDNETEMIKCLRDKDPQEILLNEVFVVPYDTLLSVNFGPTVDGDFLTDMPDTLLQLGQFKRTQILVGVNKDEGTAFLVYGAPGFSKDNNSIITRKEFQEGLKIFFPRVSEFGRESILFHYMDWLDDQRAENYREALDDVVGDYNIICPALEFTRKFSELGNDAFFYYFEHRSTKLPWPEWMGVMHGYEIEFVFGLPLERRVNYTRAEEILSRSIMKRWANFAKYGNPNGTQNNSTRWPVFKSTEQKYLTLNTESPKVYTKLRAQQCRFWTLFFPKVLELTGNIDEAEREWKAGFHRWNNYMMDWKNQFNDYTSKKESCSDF

O=c1cc2c3c4c(cc[n+]3CCC2)c2ccccc2n14.[Cl-] [INFRACTOPICRIN]
inhibition [1]: 50% | viability at 24 h, 100 µM [2]: 99.1% | Activity (SH-SY5Y [3]): 1.33% | viability at 24 h, 10 µM [4]: 97.1% | viability at 24 h, 100 µM [5]: 97.7% | IC50 (Acetylcholinesterase): 9.72 µM | Activity (HepG2 [6]): 1.48% | Activity (SH-SY5Y [7]): -0.07% | viability at 24 h, 10 µM [8]: 100% | inhibition [9]: inactive | Activity (HepG2 [10]): 2.23%

O=c1cc2c3c4c(cc[n+]3CCC2)c2cc(O)ccc2n14.[Cl-]
inhibition [1]: Active | viability at 24 h, 100 µM [2]: 101% | Activity (SH-SY5Y [3]): 0.97% | viability at 24 h, 10 µM [4]: 96.7% | viability at 24 h, 100 µM [5]: 98.3% | IC50 (Acetylcholinesterase): 12.7 µM | Activity (HepG2 [6]): 0.56% | Activity (SH-SY5Y [7]): -1.86% | viability at 24 h, 10 µM [8]: 98.7% | inhibition [9]: inactive | Activity (HepG2 [10]): 0.13%
